# Legend:
# Botrytis cinerea = assay: Effectiveness on Botrytis cinerea; type: in vivo; conditions: at 330 ppm; comparison compounds of WO 01/11965
# Alternaria brassicae = assay: In vivo test on Alternaria brassicae (leaf spot of crucifers); conditions: at 330 ppm; comparison compounds of WO 01/11965
# Experimental: The active ingredient tested is prepared by potter homogenisation in a concentrated suspension type formulation at 100 g/l. This suspension is then diluted with water to obtain the desired active material concentration.
# Radish plants (Pernot variety) in starter cups, sown on a 50/50 peat soil-pozzolana substrate and grown at 18-20° C., are treated at the cotyledon stage by spraying with the aqueous suspension described above.
# Plants, used as controls, are treated with an aqueous solution not containing the active material.
# After 24 hours, the plants are contaminated by spraying them with an aqueous suspension of Alternaria brassicae spores (40,000 spores per cm^3). The spores are collected from a 12-13-day-old culture.
# The contaminated radish plants are incubated for 6-7 days at about 18° C., under a humid atmosphere.
# Grading is carried out 6 to 7 days after the contamination, in comparison with the control plants.
# Peronospora parasitica = assay: Efficacy against Peronospora parasitica; type: in vivo; conditions: at 330 ppm; comparison compound of WO 01/11965
melting point,SMILES,effectiveness on Botrytis cinerea (Botrytis cinerea),effectiveness on Alternaria brassicae (Alternaria brassicae),efficacy against Peronospora parasitica (Peronospora parasitica)
–,"CCNC(=O)C(Cc1ncc(C(F)(F)F)cc1Cl)NC(=O)c1ccccc1Br (stereo not shown) [compound 310, N-{1-ethylcarbamoyl-2-[3-chloro-5-(trifluoromethyl)-2-pyridinyl]ethyl}-2-bromobenzamide]",zero effectiveness,–,–
–,"CCNC(=O)C(Cc1ncc(C(F)(F)F)cc1Cl)NC(=O)c1cccc([N+](=O)[O-])c1 (stereo not shown) [compound 307, N-{1-ethylcarbamoyl-2-[3-chloro-5-(trifluoromethyl)-2-pyridinyl]ethyl}-3-nitrobenzamide]",zero effectiveness,poor effectiveness,–
–,"CCNC(=O)C(Cc1ncc(C(F)(F)F)cc1Cl)NC(=O)c1ccc(Cl)cc1 (stereo not shown) [compound 306, N-{1-ethylcarbamoyl-2-[3-chloro-5-(trifluoromethyl)-2-pyridinyl]-ethyl}-4-chlorobenzamide]",zero effectiveness,–,–
–,"CNC(=O)C(Cc1ncc(C(F)(F)F)cc1Cl)NC(=O)c1ccc(OC)cc1 (stereo not shown) [compound 315, N-{1-methylcarbamoyl-2-[3-chloro-5-(trifluoromethyl)-2-pyridinyl]ethyl}-4-methoxybenzamide]",zero effectiveness,–,–
–,"CCNC(=O)C(Cc1ncc(C(F)(F)F)cc1Cl)NC(=O)c1ccccc1 (stereo not shown) [compound 304, N-{1-ethylcarbamoyl-2-[3-chloro-5-(trifluoromethyl)-2-pyridinyl]-ethyl}-benzamide]",zero effectiveness,–,–
–,"CNC(=O)C(Cc1ncc(C(F)(F)F)cc1Cl)NC(=O)c1ccccc1 (stereo not shown) [compound 314, N-{1-methylcarbamoyl-2-[3-chloro-5-(trifluoromethyl)-2-pyridinyl]ethyl}-benzamide]",zero effectiveness,–,–
–,"O=C(Cc1cccs1)NCc1ncc(C(F)(F)F)cc1Cl [compound 101, N-{[3-chloro-5-(trifluoromethyl)-2-pyridinyl]methyl}-5-thienylacetamide]",no efficacy,poor efficacy,no efficacy
192 °C,O=C(NCC(C(=O)O)c1nc(F)c(Cl)cc1F)c1sccc1I (stereo not shown) [Compound A-3],–,–,–
–,"CNC(=O)C(Cc1ncc(C(F)(F)F)cc1Cl)NC(=O)c1ccc(-c2ccccc2)cc1 (stereo not shown) [compound 316, N-{1-methylcarbamoyl-2-[3-chloro-5-(trifluoromethyl)-2-pyridinyl]-ethyl}-4-phenylbenzamide]",zero effectiveness,poor effectiveness,–

# Source: patent US7723363B2, “2-pyridinylethylcarboxamide derivatives and their use as fungicides” (Bayer Cropscience SA, priority 2004, dated 2010)
